The text below walks through data of patent US4675403A, “3-Aminoalkyl derivatives of 5,5-disubstituted hydantoins with psychotropic activity” (American Home Products Corporation, priority 1985, dated 1987).

Counter-ions that a name gives are not always drawn. Like-named read-outs stand apart in the source and are kept apart here.

Assay [1] addresses limbic D-2 dopamine receptor (Rattus norvegicus, UniProt P61169). In words: inhibition of limbic D-2 dopamine receptor binding (3H-spiroperidol). On the set-up: species or system rats. The following applies: for inhibition at 10 µM: read-out: Limbic D-2 Binding, inhibition at 10 μM. Here is the method:
The test is carried out as follows:

Assay [2] deals with conditioned avoidance (shelf-jump response). In words: conditioned avoidance (shelf-jump response) test. The following applies: Rattus norvegicus, ip, read-out: AB50.
Protocol: This test is carried out as follows:
Male CD rats (Charles River) maintained at approximately 400-450 gm body weight are used. […] A moveable wall, controlled by a motor, determines whether the rat has access to the shelf at any time during the experiment. The experimental chamber also contains a house light and sonalert. A steel grid floor in the main chamber is wired for presentation of electric shock. Each trial consists of a fifteen-second warning tone (conditioned stimulus), continuing for an additional fifteen seconds accompanied by electric shock, (unconditioned stimulus). A response (jumping onto the exposed shelf of the upper chamber) occurring during the initial fifteen-second warning tone is considered an avoidance response, while a response occurring during shock delivery is considered an escape response. […]
The following experimental parameters are recorded by computer: (1) the number of avoidance responses, (2) the number of escape responses, and (3) the number of trials in which no response occurred.
Response counts are summed over all subjects at a given dose. […] This number is expressed as a percentage of the total trials. Control performance is arbitrarily assigned a value of 100% for avoidance and the dose calculated to produce a 50% block in avoidance responding (AB50) is obtained from a dose-effect regression line fitted by the method of least squares.
[3] abbreviates: rat limbic tissue, 0.3 nM 3H-spiroperidol.

limbic D-2 dopamine receptor, sequence (P61169 whole entry): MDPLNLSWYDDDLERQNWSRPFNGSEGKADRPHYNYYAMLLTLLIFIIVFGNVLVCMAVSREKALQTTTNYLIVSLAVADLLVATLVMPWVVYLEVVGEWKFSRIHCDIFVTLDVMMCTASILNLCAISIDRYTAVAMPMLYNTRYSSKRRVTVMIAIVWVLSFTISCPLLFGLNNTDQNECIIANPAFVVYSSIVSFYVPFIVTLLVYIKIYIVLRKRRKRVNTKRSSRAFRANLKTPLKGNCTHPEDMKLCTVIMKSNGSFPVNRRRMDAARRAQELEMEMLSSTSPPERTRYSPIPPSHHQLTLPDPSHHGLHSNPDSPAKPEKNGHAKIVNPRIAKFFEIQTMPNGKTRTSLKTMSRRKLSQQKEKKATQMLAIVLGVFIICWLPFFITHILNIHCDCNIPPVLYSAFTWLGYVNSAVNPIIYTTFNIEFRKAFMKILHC

`CC1(C)NC(=O)N(CCCCN2CCN(c3ncccn3)CC2)C1=O` [Example 5, 5,5-Dimethyl-3-[4-[4-(2-pyrimidinyl)-4-piperazinyl]butyl]-2,4-imidazolidinedione, hydrochloride] yielded an inhibition at 1 µM in assay [1] (setting [3]) of 5%.
On the same count and under the same terms, the same measure for `O=C1NC2(CCCCC2)C(=O)N1CCCCN1CCN(c2ncccn2)CC1` [Example 4, 5,5-Pentamethylene-3-[4-[4-(2-pyrimidinyl)-4-piperazinyl]butyl]-2,4-imidazolidinedione, dihydrochloride]: 10%.
In the case of `O=C1NC2(CCCC2)C(=O)N1CCCCN1CCN(c2ncccn2)CC1` [Example 7, 5,5-Tetramethylene-3-[4-[4-(2-pyrimidinyl)-4-piperazinyl]butyl]-2,4-imidazolidinedione, dihydrochloride], the inhibition at 10 µM in assay [1] (10 μM, rat limbic tissue, 0.3 nM 3H-spiroperidol) turned out to be 51%.
Take `Cl.Cl.O=C1CNC(=O)N1CCCCN1CCN(c2ncccn2)CC1` [Example 3, 3-[4-[4-(2-Pyrimidinyl)-1-piperazinyl]butyl]-2,4-imidazolidinedione, dihydrochloride]: in assay [2], the ED50 turned out to be 45.8 mg/kg. Also, the inhibition at 10 µM in assay [1] worked out at 24%.
Consider `O=C1NC2(CC3CCC2C3)C(=O)N1CCCCN1CCN(c2ncccn2)CC1` (centres unmarked) [Example 2, 1-[4-[4-(2-Pyrimidinyl)-1-piperazinyl]butyl]spiro[bicyclo[2.2.1]heptane-2,4'-imidazolidine]-2',5'-dione, dihydrochloride], for which, in assay [2], the ED50 turned out to be 33.3 mg/kg. This molecule came in with a Ki in assay [1] (rat limbic tissue, 0.3 nM 3H-spiroperidol, Table 1) of 2000 nM.
Regarding `O=C1NC2(CCCC2)C(=O)N1CCCCN1CCC(O)(c2ccc(Cl)cc2)CC1` [Example 8, dihydrochloride], the inhibition at 10 µM in assay [1] is 40%.

As usually defined, the inhibition is the drop in the measured response relative to a control, in per cent. In general, Ki refers to a measure of affinity in units of concentration, obtained from inhibition or displacement.
